Patent US20260083692A1 (Strongbridge Dublin Limited, priority 2018, published 2026)
Like-named read-outs stand apart in the source and are kept apart here.

Key:
[1] = target: T1, human OAT1 (Homo sapiens, UniProt Q4U2R8); details: for Uptake (Average ± SD), OAT1: OAT1-expressing HEK293 cells; for Uptake (Average ± SD), Control: control HEK293 cells (vector only); for % control: relative to solvent control
T1 sequence (Q4U2R8 1-563): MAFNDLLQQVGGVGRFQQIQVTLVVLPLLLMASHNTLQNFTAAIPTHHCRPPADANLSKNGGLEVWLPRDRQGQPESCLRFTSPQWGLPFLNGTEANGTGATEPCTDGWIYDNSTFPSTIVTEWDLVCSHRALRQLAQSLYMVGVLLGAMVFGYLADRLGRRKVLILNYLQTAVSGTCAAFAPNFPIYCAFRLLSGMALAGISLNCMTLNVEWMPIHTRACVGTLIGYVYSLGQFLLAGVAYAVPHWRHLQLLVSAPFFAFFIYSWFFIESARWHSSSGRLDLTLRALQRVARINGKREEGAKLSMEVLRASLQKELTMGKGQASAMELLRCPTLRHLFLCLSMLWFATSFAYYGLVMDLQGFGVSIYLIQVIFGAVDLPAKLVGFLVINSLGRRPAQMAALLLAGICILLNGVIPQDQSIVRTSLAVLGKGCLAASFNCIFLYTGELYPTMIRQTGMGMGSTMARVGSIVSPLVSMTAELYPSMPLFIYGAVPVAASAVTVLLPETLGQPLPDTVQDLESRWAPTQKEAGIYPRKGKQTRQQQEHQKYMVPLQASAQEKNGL

[2] = target: T1, human OAT1; test: cell-based

Structure (SMILES): CO[C@@H]1[C@@H](OC(N)=O)[C@@H](O)[C@H](Oc2ccc3c(O)c(NC(=O)c4ccc(O)c(CC=C(C)C)c4)c(=O)oc3c2C)OC1(C)C [Novobiocin]
- Uptake (Average ± SD), OAT1 ([1]; inhibitor 300 μM): 0.425 ± 0.071 pmol/mg protein
- Uptake (Average ± SD), Control ([1]; inhibitor 300 μM): 0.231 ± 0.048 pmol/mg protein
- Background corrected uptake rate ([1]; inhibitor 300 μM): 0.194 pmol/mg/min
- % control ([1]; inhibitor 300 μM): 3.2%

Structure (SMILES): NS(=O)(=O)c1cc(Cl)c(Cl)c(S(N)(=O)=O)c1 [Dichlorphenamide, 4,5-dichloro-1,3-benzenedisulfonamide]
- Uptake (Average ± SD), OAT1 ([1]; inhibitor 1 μM): 6.99 pmol/mg protein
- Uptake (Average ± SD), OAT1 ([1]; inhibitor 3 μM): 5.99 ± 1.16 pmol/mg protein
- Uptake (Average ± SD), OAT1 ([1]; inhibitor 10 μM): 3.70 ± 0.44 pmol/mg protein
- Uptake (Average ± SD), OAT1 ([1]; inhibitor 30 μM): 3.25 ± 0.39 pmol/mg protein
- Uptake (Average ± SD), OAT1 ([1]; inhibitor 100 μM): 1.79 ± 0.25 pmol/mg protein
- Uptake (Average ± SD), OAT1 ([1]; inhibitor 300 μM): 1.47 ± 0.12 pmol/mg protein
- Uptake (Average ± SD), OAT1 ([1]; inhibitor 1000 μM): 0.669 ± 0.099 pmol/mg protein
- Uptake (Average ± SD), Control ([1]; inhibitor 1 μM): 0.0857 pmol/mg protein
- Uptake (Average ± SD), Control ([1]; inhibitor 3 μM): 0.107 ± 0.040 pmol/mg protein
- Uptake (Average ± SD), Control ([1]; inhibitor 10 μM): 0.0571 ± 0.0257 pmol/mg protein
- Uptake (Average ± SD), Control ([1]; inhibitor 30 μM): 0.612 ± 0.907 pmol/mg protein
- Uptake (Average ± SD), Control ([1]; inhibitor 100 μM): 0.150 ± 0.026 pmol/mg protein
- Uptake (Average ± SD), Control ([1]; inhibitor 300 μM): 0.0452 ± 0.0082 pmol/mg protein
- Uptake (Average ± SD), Control ([1]; inhibitor 1000 μM): 0.119 ± 0.022 pmol/mg protein
- IC50 parameters: Max ([1]; fit of OAT1 inhibition curve): Max: 115%
- IC50 parameters: Min ([1]; fit of OAT1 inhibition curve): Min: 0%
- Background corrected uptake rate ([1]; inhibitor 1 μM): 6.90 pmol/mg/min
- % control ([1]; inhibitor 1 μM): 112%
- Background corrected uptake rate ([1]; inhibitor 3 μM): 5.88 pmol/mg/min
- % control ([1]; inhibitor 3 μM): 95.6%
- Background corrected uptake rate ([1]; inhibitor 10 μM): 3.64 pmol/mg/min
- % control ([1]; inhibitor 10 μM): 59.2%
- Background corrected uptake rate ([1]; inhibitor 30 μM): 2.64 pmol/mg/min
- % control ([1]; inhibitor 30 μM): 42.9%
- Background corrected uptake rate ([1]; inhibitor 100 μM): 1.64 pmol/mg/min
- % control ([1]; inhibitor 100 μM): 26.7%
- Background corrected uptake rate ([1]; inhibitor 300 μM): 1.42 pmol/mg/min
- % control ([1]; inhibitor 300 μM): 23.1%
- Background corrected uptake rate ([1]; inhibitor 1000 μM): 0.550 pmol/mg/min
- % control ([1]; inhibitor 1000 μM): 8.9%
- IC50 [2]: 17.7 µM
